Test results reported in patent publication US20240140975A1, “ANTIVIRAL APPLICATION OF NUCLEOSIDE ANALOG OR COMBINATION FORMULATION CONTAINING NUCLEOSIDE ANALOG” (priority 2020, published 2024).
Where two headings read alike, the source gives them in different places.

Assays:
[1] = tested on: respiratory syncytial virus (RSV); assay: Cytopathic effect (CPE) assay, RSV in HEp-2; format: cell-based; settings: human respiratory syncytial virus, HEp-2 cells
Zika virus (Zika) = assay: Cytopathic effect (CPE) assay, Zika virus in Huh7; format: cell-based; settings: for EC50: Huh-7, Huh7 cells, CPE
[2] = design: species or system SD rats; settings: male, Sprague-Dawley (SD), rat, in vivo
Method: 18 male SD rats were randomly divided into 6 groups, with 3 rats for each group. Before the experiment, they were fasted for 12 hours (not for the intravenous experiment group) and allowed to drink water. 4 hours after dosing, the animals were fed. Among them, 3 groups were intragastrically administered with 10 mg/kg of A9, A146 and A151, respectively, and the remaining 3 groups were intravenously administered with 2 mg/kg of A9, A146 and A151, respectively. The vehicle for administration was DMSO/EtOH/PEG300/0.9% NaCl (5/5/40/50, v/v/v/v).
5 min (intravenous only), 0.25, 0.5, 1.0, 2.0, 4.0, 6.0, 8.0 and 24 h post administration, 0.2 mL of blood sample was collected from jugular vein into EDTA-K2 tubes, and centrifuged at 11000 rpm for 5 min. The plasma was separated, and frozen in a refrigerator at −70° C. for testing. The operation was conducted in an ice water bath. The concentration of A9 in plasma was determined by LC-MS-MS, and the pharmacokinetic parameters were calculated.

[3] = Pharmacokinetic evaluation in mice
[4] = tested on: 2019 novel coronavirus (SARS-CoV-2); assay: microbe, parasite or virus in culture; format: cell-based; settings: Vero E6 cells, 24 h p.i.; for inhibition at 5 µM: Severe acute respiratory syndrome coronavirus 2, Vero C1008, 24 h, read-out: Inhibition Rate (5 μM); for EC50: Severe acute respiratory syndrome coronavirus 2, Vero C1008, read-out: EC50
in vitro [5] = settings: human
[6] = tested on: human coronavirus OC43 (HCoV OC43); assay: Cytopathic effect (CPE) assay, HCoV OC43 in Huh7; format: cell-based; settings: Betacoronavirus 1, OC43, Huh-7, Huh7 cells
Method: The inhibitory effects of compounds on the replication of respiratory syncytial virus (RSV), human coronavirus OC43, influenza A virus, Zika virus (Zika) were tested using cytopathic effect (CPE) assay.
Experimental cells were inoculated in 96-well cell culture plate at a certain cell density, and cultured in an incubator (5% CO2, 37° C.) overnight. Compounds and viruses were added on the second day. […] Then cell viability of each well was detected using Cell Titer-Glo or CCK-8. […] The cytotoxicity test method was the same as the corresponding antiviral test method without virus infection.
The antiviral activity and cytotoxicity of the compounds are respectively indicated by the inhibition rate (%) of compounds on virus-induced cellular viral effects and cell viability (%). Calculating formulas are as follows:
Inhibition rate (%)=(reading value of test well—average value of virus control)/(average value of cell control—average value of virus control)×100;
EC50 and CC50 value are calculated by Prism software, and the inhibition curve fitting method is “log (inhibitor) vs. response—Variable slope”.

in vitro [7] = settings: human; remark: listed apart in the source
[8] = tested on: porcine epidemic diarrhea virus (PEDV); assay: Anti-porcine epidemic diarrhea virus (PEDV) activity test in Vero cells, fluorescence quantitative PCR; format: cell-based; settings: 36 h
in vivo = settings: male, CD-1, mouse
[9] = tested on: dengue fever virus (DENV); assay: Dengue virus plaque reduction test in Vero cells; format: cell-based; settings: Dengue virus, read-out: DENV (Vero) 5 μM (inhibition rate), 5 μM, plaque reduction
[10] = Tissue distribution test in mice; format: in vivo, CD-1 mice; settings: oral administration of A151, liver, kidney, lung, heart
Method: 16 male CD-1 mice were randomly divided into 4 groups, with 4 mice for each group.
Before the experiment, they were fasted for 12 hours and allowed to drink water. 2 hours after dosing, the animals were fed. The 4 groups were given 200 mg/kg A151 (dissolved in DMSO-enthanol-PEG300-saline, volume ratio: 5/5/40/50) by intragastric administration. At 1 h, 2 h, 4 h and 8 h after administration, the mice were anesthetized; blood sample was collected by heart puncture, and tissues of liver, kidney, heart and lung were harvested. The distribution profile of A9 in the tissues was determined by HPLC-MS/MS.

[11] = male, CD-1, mouse, in vivo, po, 50 mg/kg
[12] = Porcine epidemic diarrhea virus, Vero

Compound | EC50 [1] [nM] | EC50 (Zika virus (Zika)) [nM] | F % (oral bioavailability) [2] [%] | T1/2 ([2]; iv, 2 mg/kg) [h] | T1/2 ([2]; po, 10 mg/kg) [h] | AUC(0-inf) [3, 11] [ng·h/mL] | AUC(0-t) [3, 11] [ng·h/mL] | Cmax [3, 11] [ng/mL] | Tmax [3, 11] [h] | inhibition at 5 µM [4] [%] | EC50 [4] [nM] | CC50 (in vitro [5]) [nM] | EC50 [6] [nM] | CC50 (in vitro [7]) [nM] | EC50 [8, 12] [nM] | half-life (in vivo; po, 50 mg/kg) [h] | also measured
[2H]c1cc([C@]2(C#N)O[C@H](CO)[C@@H](O)[C@H]2O)n2ncnc(N)c12 [Compound A9] | 560 | 12000 | 21.3 | 2.3 | 3.4 | 6010 | 5980 | 3230 | 1.2 | 99 | 440 | > 10000 | 1770 | > 10000 | 16 | 1 | inhibition at 5 µM [9]: 100%
[2H]c1cc([C@]2(C#N)O[C@H](COC(=O)C(C)C)[C@@H](OC(=O)C(C)C)[C@H]2OC(=O)C(C)C)n2ncnc(N)c12 [Compound A151] | 630 |  | 56.7 | 1.5 | 2.6 |  |  |  |  | 99 | 310 | > 10000 | 1990 |  | < 100 |  | tissue distribution of metabolite A9 (in words) [10]: evenly distributed, without accumulation in liver or kidney
[2H]c1cc([C@]2(C#N)O[C@H](COC(=O)C(C)C)[C@@H](O)[C@H]2O)n2ncnc(N)c12 [Compound A70] | 580 |  |  |  |  |  |  |  |  | 99 |  | > 10000 | 1900 | > 10000 | 2 |  | inhibition at 5 µM (Zika virus (Zika); Huh-7, 5 μM, Huh7 cells): ~27%
[2H]c1cc([C@]2(C#N)O[C@H](C([2H])([2H])O)[C@@H](O)[C@H]2O)n2ncnc(N)c12 (stereo in doubt) [Compound A11] | 660 |  |  |  |  | 5750 | 5680 | 2120 | 0.7 | > 98 |  | > 10000 | 1990 | > 10000 | 5 | 1.9 | 
N#C[C@@]1(c2ccc3c(N)ncnn23)O[C@H](CO)[C@@H](O)[C@H]1O [GS-441524, reference compound] | 730 | 15000 |  |  |  | 4620 |  |  |  | 99 | 480 | > 10000 | 1880 | > 10000 |  | 1.2 | AUC(0-inf) ([3]; male, CD-1, mouse, in vivo, iv, 25 mg/kg): 14600 ng·h/mL; Tmax ([3]; mice, p.o. 50 mg/kg, plasma): 0.8 h; EC50 [8]: 26 nM; half-life (in vivo; iv, 25 mg/kg): 1 h
